Columns and labels:
CD11b+Gr-1− TAMs = experiment: Gene expression profiling of TAMs (microarray); assay type: in vivo, mouse
Mrc1/CD206 = Mrc1/CD206 expression in BMDMs (flow cytometry, qRT-PCR); assay type: cell-based, mouse; details: in vitro, GCM
Description: Media that had been conditioned by glioma tumor cell lines grown in serum free media for 24 hours was passed through 0.22 μm filters to remove cellular debris, and is referred to herein as glioma cell-conditioned media (GCM). GCM was used to stimulate differentiated C57BL/6 WT or β-actin-GFP^+ BMDMs. Control macrophages received fresh media containing 10% FBS and 10 ng/ml recombinant mouse CSF-1.
For mouse primary glioma cultures (containing a mixed population of tumor cells, TAMs, astrocytes etc.; see FIG. 15), 1×10^6 cells were cultivated in DMEM+10% FBS in the presence of the CSF-1R inhibitor or DMSO as vehicle (n=6 independently isolated cultures). For BMDMs, 1×10^6 cells were cultivated in DMEM supplemented with recombinant mouse CSF-1 or GCM in the presence of the CSF-1R inhibitor or DMSO as vehicle. After 48 hours, cells were scraped and washed with FACS buffer. Cells were counted and incubated with 1 μl of Fc Block (BD Pharmingen) per 10^6 cells for at least 15 minutes at 4° C. Cells were then stained with CD45 and CD11b antibodies (Table 7) for 10 minutes at 4° C. and washed with FACS buffer. Cells were fixed and permeabilized using the BD Cytofix/Cytoperm™ kit (BD Biosciences) according to the manufacturer's instructions. Subsequently cells were stained with anti-CD206 antibody (Table 7). […]

CNC(=O)c1cc(Oc2ccc3nc(N[C@@H]4CCCC[C@H]4O)sc3c2)ccn1 [BLZ945]
targets of Egr2 (GSEA) (CD11b+Gr-1− TAMs; 7 days treatment): downregulated | upregulated differentially expressed genes (CD11b+Gr-1− TAMs; BLZ945 versus vehicle, 7 days treatment): 52 genes | classically activated/M1 macrophage markers (CD11b+Gr-1− TAMs; with the exception of IL-1 beta): not differentially expressed | expression of Mrc1/CD206 in BMDMs (Mrc1/CD206): downregulates
